pIC50: −log10 of the molar value. Where a SMILES comes first, the peptide text is derived from it. [ ]: non-standard residue; d: D form. Nspe = C[C@H](NCC(=O)O)c1ccccc1; NhArg = N=C(N)NCCCCNCC(=O)O; Nlys = NCCCCNCC(=O)O
Columns and labels:
Assay type in all cases: cell-based
[1] = tested on: T. cruzi Tulahuen strain C2C4; assay: microbe, parasite or virus in culture; conditions: for pIC50: in L-6 cells, 96 h, read-out: IC50 T. cruzi; for active against T. cruzi: statement in words
Description: Rat skeletal myoblasts (L-6 cells) were seeded in 96-well microtitre plates at 2000 cells/well in 100 μL RPMI 1640 medium with 10% FBS and 2 mM 1-glutamine. After 24 h the medium was removed and replaced by 100 μl per well containing 5000 trypomastigote forms of T. cruzi Tulahuen strain C2C4 containing the β-galactosidase (Lac Z) gene. After 48 h the medium was removed from the wells and replaced by 100 μl fresh medium with or without a serial drug dilution of eleven 3-fold dilution steps covering a range from 100 to 0.002 μg/ml. After 96 h of incubation the plates were inspected under an inverted microscope to assure growth of the controls and sterility. Then the substrate CPRG/Nonidet (50 μl) was added to all wells. A color reaction developed within 2-6 h and could be read photometrically at 540 nm. Data were analyzed with the graphic programme Softmax Pro (Molecular Devices), which calculated IC50 values by linear regression from the sigmoidal dose inhibition curves. Benznidazole is used as control (IC50 0.5+0.2 μg/ml).

[2] = tested on: Trypanosoma brucei rhodesiense STIB900; conditions: for pIC50: 70 h; for active against T. brucei rhodesiense: statement in words
Description: This stock was isolated in 1982 from a human patient in Tanzania and after several mouse passages cloned and adapted to axenic culture conditions. Minimum Essential Medium (50 μl) supplemented with 25 mM HEPES, 1 g/l additional glucose, 1% MEM non-essential amino acids (100×), 0.2 mM 2-mercaptoethanol, 1 mM Na-pyruvate and 15% heat inactivated horse serum was added to each well of a 96-well microtiter plate. Serial drug dilutions of eleven 3-fold dilution steps covering a range from 100 to 0.002 μg/ml were prepared. Then 4×10^3 bloodstream forms of T. b. rhodesiense STIB 900 in 50 μl was added to each well and the plate incubated at 37° C. under a 5% CO2 atmosphere for 70 h. 10 μl Alamar Blue (resazurin, 12.5 mg in 100 ml double-distilled water) was then added to each well and incubation continued for a further 2-4 h. Then the plates were read with a Spectramax Gemini XS microplate fluorometer (Molecular Devices Cooperation, Sunnyvale, Calif., USA) using an excitation wave length of 536 nm and an emission wave length of 588 nm. The IC50 values were calculated by linear regression from the sigmoidal dose inhibition curves using SoftmaxPro software (Molecular Devices Cooperation, Sunnyvale, Calif., USA). Melarsoprol (Arsobal Sanofi-Aventis, received from WHO) is used as control.

[3] = tested on: S. aureus (NCTC 6571) biofilm; assay: Single species biofilm treatment, crystal violet assay; conditions: 100 μM peptoid, 24 hours, FIG. 17B
Description: (§1) C. albicans (NCTC 3179) was subcultured aerobically on Sabouraud agar plates and propagated in yeast peptone dextrose broth. E. coli (ATCC 29522) and S. aureus (NCTC 6571) were grown on blood agar plates and propagated in brain heart infusion (BHI) broth.
(§2) Overnight cultures of C. albicans were washed and resuspended in a modified RPMI-1640 (Sigma-Aldrich, St Louis, USA) medium to yield an inoculum of 1.0×10^6 cells/ml. Overnight cultures of S. aureus or E. coli were washed and resuspended in brain heart infusion broth (Oxoid, Basingstoke, UK) to yield an inoculum of 5.0×10^6 cells/ml. A total volume of 100 μl of each inoculum was added to microtitre plate wells (Thermo Fisher Scientific, Roskilde, Denmark). An initial biofilm was allowed to form for 4 hours. Wells were washed three times with 200 μl PBS to facilitate removal of planktonic cells and the biofilms were then treated with 100 μM of peptoids 1-4 in the appropriate broth. Plates were incubated for a further 24 hours to allow biofilm maturation. After removal of planktonic cells by washing, biofilms were quantified by the crystal violet assay or by PMA-qPCR.
(§3) Biofilm quantification by crystal violet assay Washed biofilms were fixed with 100 μl methanol for 10 minutes. Following removal of methanol, the wells were air dried and stained with crystal violet solution (Clin-Tech Ltd, Guildford, UK) for 20 minutes at room temperature. Excess stain was removed by washing, the plate was then air dried and bound crystal violet was re-solubilised in 16 μl 33% acetic acid prior to reading at 570 nm in a microtitre plate reader (Tecan GENios, Ziirich, Switzerland).

[4] = tested on: erythrocytic stages of P. falciparum; conditions: for active against P. falciparum: statement in words; for pIC50: strain (NF54 or K1) not given
Description: In vitro activity against erythrocytic stages of P. falciparum was determined using a 3H-hypoxanthine incorporation assay using the drug sensitive NF54 strain (Schipol airport) or the chloroquine and pyrimethamine resistant K1 strain that originate from Thailand and the standard drug chloroquine (Sigma C6628). Compounds were dissolved in DMSO at 10 mg/ml and added to parasite cultures incubated in RPMI 1640 medium without hypoxanthine, supplemented with HEPES (5.94 g/l), NaHCO3 (2.1 g/1), neomycin (100 U/ml), Albumax® (5 g/l) and washed human red cells A^+ at 2.5% haematocrit (0.3% parasitaemia). Serial drug dilutions of eleven 3-fold dilution steps covering a range from 100 to 0.002 μg/ml were prepared. The 96-well plates were incubated in a humidified atmosphere at 37° C.; 4% CO2, 3% O2, 93% N2. After 48 h 50 μl of 3H-hypoxanthine (=0.5 μCi) was added to each well of the plate. The plates were incubated for a further 24 h under the same conditions. The plates were then harvested with a Betaplate™ cell harvester (Wallac, Zurich, Switzerland), and the red blood cells transferred onto a glass fibre filter then washed with distilled water. The dried filters were inserted into a plastic foil with 10 ml of scintillation fluid, and counted in a Betaplate™ liquid scintillation counter (Wallac, Zurich, Switzerland). IC50 values were calculated from sigmoidal inhibition curves by linear regression using Microsoft Excel. Chloroquine and artemisinin are used as control.

[5] = tested on: E. coli (ATCC 29522) biofilm; assay: Single species biofilm treatment, crystal violet assay; conditions: 100 μM peptoid, 24 hours, FIG. 17C
Description: as §1, §2, §3

SMILES	pIC50 [1]	active against T. cruzi [1]	pIC50 [2]	active against T. brucei rhodesiense [2]	activity against the S. aureus biofilm [3]	active against P. falciparum [4]	pIC50 [4]	activity against the E. coli biofilm [5]
C[C@@H](c1ccccc1)N(CC(N)=O)C(=O)CN(C(=O)CN(CCCCNC(=N)N)C(=O)CN(C(=O)CN(C(=O)CN(CCCCNC(=N)N)C(=O)CN(C(=O)CN(C(=O)CN(CCCCN)C(=O)CN(C(=O)CN(C(=O)CNCCCCN)[C@@H](C)c1ccccc1)[C@@H](C)c1ccccc1)[C@@H](C)c1ccccc1)[C@@H](C)c1ccccc1)[C@@H](C)c1ccccc1)[C@@H](C)c1ccccc1)[C@@H](C)c1ccccc1 [Peptoid 1, (NLys-Nspe-Nspe)2(NhArg-Nspe-Nspe)2] (H-[Nlys][Nspe][Nspe][Nlys][Nspe][Nspe][NhArg][Nspe][Nspe][NhArg][Nspe][Nspe]-NH2; N-terminus assumed)	4.91	active	5.17	active	strongest anti-bacterial activity	active	5.82	–
C[C@@H](c1ccccc1)N(CC(N)=O)C(=O)CN(C(=O)CN(CCCCN)C(=O)CN(C(=O)CN(C(=O)CN(CCCCNC(=N)N)C(=O)CN(C(=O)CN(C(=O)CN(CCCCN)C(=O)CN(C(=O)CN(C(=O)CNCCCCNC(=N)N)[C@@H](C)c1ccccc1)[C@@H](C)c1ccccc1)[C@@H](C)c1ccccc1)[C@@H](C)c1ccccc1)[C@@H](C)c1ccccc1)[C@@H](C)c1ccccc1)[C@@H](C)c1ccccc1 [Peptoid 4, [(NhArg-Nspe-Nspe)(NLys-Nspe-Nspe)]2] (H-[NhArg][Nspe][Nspe][Nlys][Nspe][Nspe][NhArg][Nspe][Nspe][Nlys][Nspe][Nspe]-NH2; N-terminus assumed)	4.67	active	4.78	active	–	active	5.57	strongest anti-bacterial activity

Reference: patent US20180201647A1, “Peptoid” (The University of Durham, priority 2015, published 2018)
